Source: patent publication US20040053355A1, “Modular approach to on-line synthesis, drug discovery and biochemical transformations using immobilized enzyme reactors” (priority 2000, published 2004)

Key:
[1] = biological target: T1, DBH-Glut-P IMER (immobilized dopamine beta-hydroxylase) (Bos taurus, UniProt P15101); experiment: On-line DBH-Glut-P immobilized enzyme reactor (DBH-Glut-P IMER) HPLC system; format: biochemical, bovine
T1 construct: purchased
T1 sequence (P15101 1-610): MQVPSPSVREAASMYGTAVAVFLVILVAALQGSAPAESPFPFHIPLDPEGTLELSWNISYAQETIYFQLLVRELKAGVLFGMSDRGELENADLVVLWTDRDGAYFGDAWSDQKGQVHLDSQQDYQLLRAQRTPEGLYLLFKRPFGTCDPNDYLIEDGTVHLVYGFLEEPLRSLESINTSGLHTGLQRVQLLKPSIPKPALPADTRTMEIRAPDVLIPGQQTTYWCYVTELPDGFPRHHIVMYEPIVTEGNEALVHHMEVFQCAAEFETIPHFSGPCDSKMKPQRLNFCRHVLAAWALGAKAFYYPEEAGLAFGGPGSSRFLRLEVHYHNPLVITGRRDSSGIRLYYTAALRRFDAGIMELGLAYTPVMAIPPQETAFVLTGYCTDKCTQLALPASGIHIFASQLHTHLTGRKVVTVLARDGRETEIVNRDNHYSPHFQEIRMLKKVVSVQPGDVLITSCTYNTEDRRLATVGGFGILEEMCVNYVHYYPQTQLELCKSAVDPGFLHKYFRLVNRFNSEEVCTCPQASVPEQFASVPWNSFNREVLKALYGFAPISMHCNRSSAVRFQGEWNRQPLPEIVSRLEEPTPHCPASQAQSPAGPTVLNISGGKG
Source text: DBH immobilized on the IAM or Glut-P stationary phase was packed into a 1 cm×10 mm guard (Regis Technologies). The guard was placed in a holder and the resulting column connected to a chromatographic system. THE DBH-IAM-IMER and the DBH-Glut-P-IMER was washed with sodium acetate buffer [0.1M, pH 5.5] and sodium acetate buffer [0.1M, pH 6.0], respectively. The eluent from both IMERs was collected in order to determine if any of the DBH was being washed off the columns. The Biorad assay was utilized to measure the amount of non-immobilized enzyme. When the columns were not in use they were washed with sodium acetate buffer at the respective pHs and stored at 4° C.
Pumps 2 and 3 on system 2 and 3 were stopped. 100 μl of a substrate/cofactor mixture is loaded into the injector (i) and the valve is switched to the inject position at the same time the witching valve (SV) is switched such that substrate/product are eluted from the DBH-IMERs and concentrated onto the PBA column of system 2.The second pump was started and mobile phase A was pumped through the PBA column at a flow rate of 0.1 ml/min for 30 sec in order to elute, ascorbic acid and any other by-products produced from the reaction. The pump was then switched to mobile phase B with a flow rate of 0.1 ml/min for 2 min and simultaneously SV1 was switched such that unreacted substrate and product formed were concentrated on the analytical columns of System 3. When the specific contact time elapses the SV2 is switched back to the original position and the pump 3 is started.
The enzymatic activity on the DBH-Glut-P was determined by quantification of the amount of product formed with a given substrate. The temperature of the IMER unless otherwise stated was kept at 37° C. with a column heater. Stock solutions of tyramine were prepared in water. […] The kinetic parameters were determined using standard Michaelis-Menten approach. […] The rates of reaction (Vmax) were calculated using […]mol/mg/min. Results are expressed as mean±standard error of the mean (SEM). […]

[2] = biological target: T2, dopamine beta-hydroxylase (DBH), non-immobilized (Bos taurus, UniProt P15101); experiment: Non-immobilized DBH activity assay, batch incubation with HPLC-fluorescence analysis; format: biochemical, bovine
T2 construct: purchased
T2 sequence (P15101 1-610): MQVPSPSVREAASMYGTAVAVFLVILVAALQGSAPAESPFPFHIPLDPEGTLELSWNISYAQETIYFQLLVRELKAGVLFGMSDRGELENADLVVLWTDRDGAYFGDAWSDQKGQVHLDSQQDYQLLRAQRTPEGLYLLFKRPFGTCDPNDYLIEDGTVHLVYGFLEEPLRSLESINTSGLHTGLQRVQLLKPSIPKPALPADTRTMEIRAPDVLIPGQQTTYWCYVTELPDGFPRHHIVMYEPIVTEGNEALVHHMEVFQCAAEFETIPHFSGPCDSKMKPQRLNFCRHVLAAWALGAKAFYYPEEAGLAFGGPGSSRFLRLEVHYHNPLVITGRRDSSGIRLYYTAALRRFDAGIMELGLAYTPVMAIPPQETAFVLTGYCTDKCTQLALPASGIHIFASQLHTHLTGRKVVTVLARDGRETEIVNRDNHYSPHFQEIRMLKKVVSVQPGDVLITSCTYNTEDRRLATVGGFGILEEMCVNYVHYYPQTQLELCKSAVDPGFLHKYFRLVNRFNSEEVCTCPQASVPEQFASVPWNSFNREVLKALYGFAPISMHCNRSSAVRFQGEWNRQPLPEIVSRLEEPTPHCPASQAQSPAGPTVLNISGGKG
Experimental: The solutes were quantitated using fluorescence detection with excitation at λ=265 nm and no cut-off filter for emission. A flow rate of 1 ml/min and ambient temperature were used throughout the study.
Enzymatic conversions utilizing DBH require cupric sulphate, catalase, ascorbic acid and sodium fumarate. An off-line extraction method utilizing solid phase extraction cartridges containing a phenylboronic acid stationary phase was developed. The procedure consisted of the following: 1-ml cartridges were conditioned with 2 ml of methanol followed by 2 ml of sodium phosphate buffer (0.1M, pH 8.4). One ml of reaction mixture was added, the cartridge was then washed with 1 ml sodium phosphate buffer (0.1M, pH 8.4) and the substrate and product were eluted using 1 ml of 0.1N HCl. The eluate was directly injected onto the HPLC system.
(§1) The enzyme was assayed as follows: four different solutions were prepared A, B, C and D (final concentration). (A) 500 μL of enzyme solution (10 μg/ml); B: 275 μL sodium acetate buffer (10 mM, pH 5.5), 50 μL cupric sulphate (5 μM); C: 25 μL catalase (5 μg/ml), 50 μL ascorbic acid (10 mM), 50 μl sodium fumarate (10 mM); D: 50 μl substrate (5 mM). Solution B was added to solution A, the resulting solution was mixed for 1 min. Solution C was added and the resulting solution was mixed for an additional minute. The reaction was started with the addition of the substrate (D), after which the reaction solution was incubated for 5 min at 37° C. in a shaking bath. The reaction was stopped by the addition of 100 μl of cold hexane, the resulting mixture was centrifuged at 3000×g for 10 min and the supernatant transferred to the pre-conditioned phenylboronic acid cartridges in order to extract the product formed and the remaining substrate. Extracted samples were directly injected onto the HPLC under either chiral or achiral conditions.

[3] = biological target: T3, dopamine beta-hydroxylase immobilized onto IAM (DBH-IAM) (Bos taurus, UniProt P15101); experiment: DBH immobilized onto IAM stationary phase (DBH-IAM), batch assay; format: biochemical, bovine
T3 construct: purchased
T3 sequence (P15101 1-610): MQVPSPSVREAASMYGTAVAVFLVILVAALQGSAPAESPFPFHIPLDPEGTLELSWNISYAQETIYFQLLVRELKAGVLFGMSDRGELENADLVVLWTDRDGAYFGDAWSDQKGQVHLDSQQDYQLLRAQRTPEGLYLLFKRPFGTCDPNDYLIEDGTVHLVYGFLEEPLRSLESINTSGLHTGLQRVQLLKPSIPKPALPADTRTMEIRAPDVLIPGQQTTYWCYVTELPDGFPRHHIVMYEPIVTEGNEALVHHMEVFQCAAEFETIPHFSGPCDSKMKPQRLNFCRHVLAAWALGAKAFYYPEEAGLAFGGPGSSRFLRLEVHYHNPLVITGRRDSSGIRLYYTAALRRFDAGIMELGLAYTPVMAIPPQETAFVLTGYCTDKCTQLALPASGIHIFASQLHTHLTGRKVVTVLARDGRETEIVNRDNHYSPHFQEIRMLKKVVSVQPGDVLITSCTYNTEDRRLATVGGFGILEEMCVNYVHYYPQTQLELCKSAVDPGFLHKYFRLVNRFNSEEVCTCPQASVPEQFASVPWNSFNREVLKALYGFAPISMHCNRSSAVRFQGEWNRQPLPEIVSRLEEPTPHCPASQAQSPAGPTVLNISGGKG
Experimental: as §1
The packing material was washed three times with sodium acetate buffer (0.1M, pH 5.5). The washing was carried out by adding 1 ml of buffer to the packing material, the suspension was vortexed for 1 min, centrifuged at 3000×g for 10 min and the supernatant decanted. The enzyme solution (8-10 μg in 1 ml sodium acetate buffer) was added to the packing material, the mixture was vortexed for 15 min and then placed in a shaking bath for 2 h at ambient temperature. At the end of 2 h, the suspension was centrifuged, the supernatant decanted and the packing material washed three additional times with buffer. The amount of enzyme immobilized on the packing material was determined by measuring the amount of residual enzyme in the supernatant using the BioRad Protein Assay. The difference in the absorbance reading before immobilization and the total of absorbances after immobilization determined the amount of enzyme bound on the packing material.

[4] = substrate: NCCc1ccc(O)c(O)c1; experiment: purified protein, by the assay type; conditions: other: DBH-IAM; pH 5.5; 37.0 °C
[5] = substrate: NCCc1ccc(O)cc1; experiment: DBH immobilized onto IAM stationary phase (DBH-IAM), batch assay; format: biochemical, bovine; conditions: other: DBH-IAM; pH 5.5; 37.0 °C
[6] = read-out: % Control Activity DBH
[7] = read-out: % Control Activity DBH-IAM

Molecule: CCCCc1ccc(C(=O)O)nc1 [Fusaric acid, fusaric acid]
- IC50 [1]: 5.6 nM
- IC50 [2]: 7.5 nM
- inhibition of DBH mediated formation of norepinephrine from dopamine ([2]; non-immobilized enzyme, concentrations as low as 10^−6M): approximately 50%
- remaining activity at 0.0016 µM [2, 6]: 99%
- remaining activity at 0.0032 µM [2, 6]: 84%
- remaining activity at 0.0063 µM [2, 6]: 40%
- remaining activity at 0.0125 µM [2, 6]: 21%
- remaining activity at 0.025 µM [2, 6]: 19%
- remaining activity at 0.05 µM [2, 6]: 17%
- remaining activity at 0.1 µM [2, 6]: 0%
- remaining activity at 0.2 µM [2, 6]: 0%
- inhibition of DBH mediated formation of norepinephrine from dopamine ([3]; immobilized enzyme (DBH-IAM), concentrations as low as 10^−6M): approximately 50%
- remaining activity at 0.0016 µM [3, 7]: 91%
- remaining activity at 0.0032 µM [3, 7]: 73%
- remaining activity at 0.0063 µM [3, 7]: 56%
- remaining activity at 0.0125 µM [3, 7]: 51%
- remaining activity at 0.025 µM [3, 7]: 46%
- remaining activity at 0.05 µM [3, 7]: 20%
- remaining activity at 0.1 µM [3, 7]: 0%
- remaining activity at 0.2 µM [3, 7]: 0%

B1: dopamine beta-hydroxylase immobilized onto IAM (DBH-IAM) (Bos taurus) (protein)
chain: MQVPSPSVREAASMYGTAVAVFLVILVAALQGSAPAESPFPFHIPLDPEGTLELSWNISYAQETIYFQLLVRELKAGVLFGMSDRGELENADLVVLWTDRDGAYFGDAWSDQKGQVHLDSQQDYQLLRAQRTPEGLYLLFKRPFGTCDPNDYLIEDGTVHLVYGFLEEPLRSLESINTSGLHTGLQRVQLLKPSIPKPALPADTRTMEIRAPDVLIPGQQTTYWCYVTELPDGFPRHHIVMYEPIVTEGNEALVHHMEVFQCAAEFETIPHFSGPCDSKMKPQRLNFCRHVLAAWALGAKAFYYPEEAGLAFGGPGSSRFLRLEVHYHNPLVITGRRDSSGIRLYYTAALRRFDAGIMELGLAYTPVMAIPPQETAFVLTGYCTDKCTQLALPASGIHIFASQLHTHLTGRKVVTVLARDGRETEIVNRDNHYSPHFQEIRMLKKVVSVQPGDVLITSCTYNTEDRRLATVGGFGILEEMCVNYVHYYPQTQLELCKSAVDPGFLHKYFRLVNRFNSEEVCTCPQASVPEQFASVPWNSFNREVLKALYGFAPISMHCNRSSAVRFQGEWNRQPLPEIVSRLEEPTPHCPASQAQSPAGPTVLNISGGKG
notes: purchased
- Km [4]: 2530 µM
- Vmax [4]: 0.160 µmol/mg/min
- Km [5]: 1640 µM
- Vmax [5]: 0.101 µmol/mg/min
